Tests used:
Format in all cases: cell-based
[1] = test system: Wnt activity (Sp5-Luc reporter, human Sp5 promoter with eight TCF/LEF binding sites) in SW480 colon carcinoma cells; assay: Screening assay for Wnt activity: Sp5-Luc reporter gene assay in SW480 cells; conditions: for EC50: 10-point dose-response starting from 10 μM, overnight incubation; for inhibition at 10 µM: read-out: percent inhibition at 10 μM (given for EC50 of >10 μM)
Outline: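 SW480 cells stably carrying Sp5-Luc reporter (eight TCF/LEF sites) plated at 4,000/well in 1% FBS medium with compound (10-point 1:3 series from 10 μM, 0.1% DMSO) overnight at 37 °C. BrightGlo luminescence normalized to DMSO; EC50 by four-parameter fit, else % inhibition at 10 μM.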

SW480 colon cancer cells = assay: Cell viability assay (CellTiter-Blue) in SW480 colon cancer cells; conditions: Homo sapiens, 96 h; for EC50: four days incubation, CellTiter-Blue cell viability; for inhibition at 10 µM: four days, CellTiter-Blue, read-out: percent inhibition at 10 μM (given for EC50 of >10 μM)
Outline: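 About 2×10^3 SW480 colon cancer cells per well were exposed to compound (8-point 1:3 dilutions, 10 μM to 0.004 μM) for four days at 37 °C. Viability was read by CellTiter-Blue resazurin reduction (~3 h, Ex 560/Em 590). EC50 from nonlinear regression; above 10 μM, % inhibition at 10 μM is reported.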

IL-6 in THP-1 cells = assay: Inhibition of IL-6 in LPS-stimulated THP-1 human monocyte cells (HTRF); conditions: IL-6 HTRF; for EC50: 500 ng/mL LPS, 22 hours; for inhibition at 10 µM: LPS, read-out: percent inhibition in brackets (given for EC50 >10 μM)
Outline: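 THP-1 cells, serum-reduced (1% FBS) for 24 h, were exposed to compound (1:3, 10-point series from 10 μM; 0.1% DMSO) for 2 h, then 500 ng/mL LPS for 22 h at 37° C. Secreted IL-6 measured by HTRF (665/620 ratio), normalised to DMSO; EC50 by four-parameter fit, else % inhibition at 10 μM.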

Row | EC50 [1] [µM] | EC50 (SW480 colon cancer cells) [µM] | EC50 (IL-6 in THP-1 cells) [µM] | Structure (SMILES) | inhibition at 10 µM [1] [%] | inhibition at 10 µM (SW480 colon cancer cells) [%] | inhibition at 10 µM (IL-6 in THP-1 cells) [%]
1 | 0.041 | 0.097 | 0.125 | Cc1ccc(-c2cncc3[nH]c(-c4n[nH]c5ccc(-c6cncc(N)c6)nc45)nc23)s1 [Compound 367, 5-(3-(7-(5-Methylthiophen-2-yl)-3H-imidazo[4,5-c]pyridin-2-yl)-1H-pyrazolo[4,3-b]pyridin-5-yl)pyridin-3-amine] |  |  | 
2 | > 10 | > 10 | > 10 | O=C(CC1CCNCC1)Nc1cncc(-c2ccc3[nH]nc(-c4nc5c(-c6ccccn6)cncc5[nH]4)c3n2)c1 [Compound 565, 2-(Piperidin-4-yl)-N-(5-(3-(7-(pyridin-2-yl)-3H-imidazo[4,5-c]pyridin-2-yl)-1H-pyrazolo[4,3-b]pyridin-5-yl)pyridin-3-yl)acetamide] | 44.2 | 5.1 | 34.7
3 | 4.08 | > 10 | > 10 | CC(C)CC(=O)Nc1cncc(-c2ccc3[nH]nc(-c4nc5c(-c6ccc(Cl)s6)cncc5[nH]4)c3n2)c1 [Compound 992, N-(5-(3-(7-(5-Chlorothiophen-2-yl)-3H-imidazo[4,5-c]pyridin-2-yl)-1H-pyrazolo[4,3-b]pyridin-5-yl)pyridin-3-yl)-3-methylbutanamide] |  | 25.1 | 29.8
4 | 0.71 | > 10 | 0.031 | CN(C)c1cncc(-c2ccc3[nH]nc(-c4nc5c(-c6cccs6)cncc5[nH]4)c3n2)c1 [Compound 315, N,N-Dimethyl-5-(3-(7-(thiophen-2-yl)-3H-imidazo[4,5-c]pyridin-2-yl)-1H-pyrazolo[4,3-b]pyridin-5-yl)pyridin-3-amine] |  | 43.8 | 
5 | 3.72 | 3.44 | > 10 | CCCC(=O)Nc1cncc(-c2ccc3[nH]nc(-c4nc5c(-c6ccsc6)cncc5[nH]4)c3n2)c1 [Compound 269, N-(5-(3-(7-(Thiophen-3-yl)-3H-imidazo[4,5-c]pyridin-2-yl)-1H-pyrazolo[4,3-b]pyridin-5-yl)pyridin-3-yl)butyramide] |  |  | 45.9
6 | > 10 | > 10 | 1.63 | c1ncc(-c2ccc3[nH]nc(-c4nc5c(N6CCCCC6)cncc5[nH]4)c3n2)cc1OCCN1CCCC1 [Compound 582, 3-(7-(Piperidin-1-yl)-3H-imidazo[4,5-c]pyridin-2-yl)-5-(5-(2-(pyrrolidin-1-yl)ethoxy)pyridin-3-yl)-1H-pyrazolo[4,3-b]pyridine] | 6.6 | 15.8 | 
7 | 0.911 | 2.88 | > 10 | Cc1ncc(-c2ccc3[nH]nc(-c4nc5c(-c6ccoc6)cncc5[nH]4)c3n2)n1C [Compound 641, 5-(1,2-Dimethyl-1H-imidazol-5-yl)-3-(7-(furan-3-yl)-3H-imidazo[4,5-c]pyridin-2-yl)-1H-pyrazolo[4,3-b]pyridine] |  |  | 8.9
8 | 0.644 | 0.362 | > 10 | Fc1ccccc1-c1cncc2[nH]c(-c3n[nH]c4ccc(-c5ccccn5)nc34)nc12 [Compound 84, 3-(7-(2-Fluorophenyl)-3H-imidazo[4,5-c]pyridin-2-yl)-5-(pyridin-2-yl)-1H-pyrazolo[4,3-b]pyridine] |  |  | 46.8
9 | 1.35 | 6.19 | 1.75 | CC(C)Nc1cncc(-c2ccc3[nH]nc(-c4nc5c(-c6cccnc6)cncc5[nH]4)c3n2)c1 [Compound 96, N-Isopropyl-5-(3-(7-(pyridin-3-yl)-3H-imidazo[4,5-c]pyridin-2-yl)-1H-pyrazolo[4,3-b]pyridin-5-yl)pyridin-3-amine] |  |  | 
10 | 0.024 | > 10 | > 10 | COc1cncc(-c2ccc3[nH]nc(-c4nc5c(-c6cccc(F)c6)cncc5[nH]4)c3n2)c1 [Compound 488, 3-(7-(3-Fluorophenyl)-3H-imidazo[4,5-c]pyridin-2-yl)-5-(5-methoxylpyridin-3-yl)-1H-pyrazolo[4,3-b]pyridine] |  | 0 | 43
11 | 0.638 | 0.86 | 0.341 | CN(C)c1cncc(-c2ccc3[nH]nc(-c4nc5c(-c6cccc(F)c6)cncc5[nH]4)c3n2)c1 [Compound 7, 5-(3-(7-(3-Fluorophenyl)-3H-imidazo[4,5-c]pyridin-2-yl)-1H-pyrazolo[4,3-b]pyridin-5-yl)-N,N-dimethylpyridin-3-amine] |  |  | 
12 | 1.66 | 5.36 | 2.29 | CC(C)Nc1cncc(-c2ccc3[nH]nc(-c4nc5c(-c6cc(F)cc(NCCN(C)C)c6)cncc5[nH]4)c3n2)c1 [Compound 432, N^1-(3-Fluoro-5-(2-(5-(5-(isopropylamino)pyridin-3-yl)-1H-pyrazolo[4,3-b]pyridin-3-yl)-3H-imidazo[4,5-c]pyridin-7-yl)phenyl)-N^2,N^2-dimethylethane-1,2-diamine] |  |  | 
13 | > 10 | > 10 | > 10 | CN1CCN(c2cncc3[nH]c(-c4n[nH]c5ccc(-c6cnccn6)nc45)nc23)CC1 [Compound 620, 3-(7-(4-Methylpiperazin-1-yl)-3H-imidazo[4,5-c]pyridin-2-yl)-5-(pyrazin-2-yl)-1H-pyrazolo[4,3-b]pyridine] | 5.8 | 48.8 | 30.6
14 | > 10 | > 10 | > 10 | O=C(Nc1cncc(-c2ccc3[nH]nc(-c4nc5c(-c6cccc(F)c6)cncc5[nH]4)c3n2)c1)C1CC1 [Compound 20, N-(5-(3-(7-(3-Fluorophenyl)-3H-imidazo[4,5-c]pyridin-2-yl)-1H-pyrazolo[4,3-b]pyridin-5-yl)pyridin-3-yl)cyclopropanecarboxamide] | 7 | 5.1 | 19.6

Row | Structure (SMILES) | EC50 [1] [µM] | EC50 (SW480 colon cancer cells) [µM] | EC50 (IL-6 in THP-1 cells) [µM] | inhibition at 10 µM [1] [%] | inhibition at 10 µM (SW480 colon cancer cells) [%] | inhibition at 10 µM (IL-6 in THP-1 cells) [%]
15 | Cc1cn(-c2cncc3[nH]c(-c4n[nH]c5ccc(C6=CCNCC6)nc45)nc23)cn1 [Compound 590, 3-(7-(4-Methyl-1H-imidazol-1-yl)-3H-imidazo[4,5-c]pyridin-2-yl)-5-(1,2,3,6-tetrahydropyridin-4-yl)-1H-pyrazolo[4,3-b]pyridine] | > 10 | > 10 | > 10 | 6.8 | 10 | 11.5
